Measured values published in patent EP1513525B1, “USE OF MGLUR5 ANTAGONISTS FOR THE TREATMENT OF GERD” (AstraZeneca AB, priority 2002, dated 2003).

Assays:
TLESRs [1] = assay: Screening for compounds active against TLESR, Barostat model (nutrient meal followed by air infusion, intragastric pressure held at 10±1 mmHg); assay type: in vivo, Adult Labrador retrievers; details: inhibition of the number of TLESRs, infusion during 55 min
Protocol: (§1) Adult Labrador retrievers of both genders, trained to stand in a Pavlov sling, are used. Mucosa-to-skin esophagostomies are formed and the dogs are allowed to recover completely before any experiments are done.
(§2) In brief, after fasting for approximately 17 h with free supply of water, a multilumen sleeve/sidehole assembly (Dentsleeve, Adelaide, South Australia) is introduced through the esophagostomy to measure gastric, lower esophageal sphincter (LES) and esophageal pressures. The assembly is perfused with water using a low-compliance manometric perfusion pump (Dentsleeve, Adelaide, South Australia). An air-perfused tube is passed in the oral direction to measure swallows, and an antimony electrode monitored pH, 3 cm above the LES. All signals are amplified and acquired on a personal computer at 10 Hz.
Ten min after i.v. administration, a nutrient meal (10% peptone, 5% D-glucose, 5% Intralipid, pH 3.0) is infused into the stomach through the central lumen of the assembly at 100 ml/min to a final volume of 30 ml/kg. Immediately following the meal, air is insufflated at 40 ml/min. In an alternative model (Barostat model), the infusion of the nutrient meal is followed by air infusion at a rate of 500 ml/min until a intragastric pressure of 10±1 mmHg is obtained. […]

TLESRs [2] = assay: Screening for compounds active against TLESR, standard model (nutrient meal followed by air insufflation at 40 ml/min); assay type: in vivo, Adult Labrador retrievers
Protocol: as §1, §2
When a baseline measurement free from fasting gastric/LES phase III motor activity has been obtained, placebo (0.9% NaCl) or test compound is administered intravenously (i.v., 0.5 ml/kg) in a foreleg vein. Ten min after i.v. administration, a nutrient meal (10% peptone, 5% D-glucose, 5% Intralipid, pH 3.0) is infused into the stomach through the central lumen of the assembly at 100 ml/min to a final volume of 30 ml/kg. Immediately following the meal, air is insufflated at 40 ml/min. In an alternative model (Barostat model), the infusion of the nutrient meal is followed by air infusion at a rate of 500 ml/min until a intragastric pressure of 10±1 mmHg is obtained. The pressure is then maintained at this level throughout the experiment using the infusion pump for further air infusion or for venting air from the stomach. The experimental time from start of nutrient infusion to end of air insufflation is 45 min. The procedure has been validated as a reliable means of triggering TLESRs.
TLESRs is defined as a decrease in lower esophageal sphincter pressure (with reference to intragastric pressure) at a rate of >1 mmHg/s. The relaxation should not be preceded by a pharyngeal signal ≤2s before its onset in which case the relaxation is classified as swallow-induced. The pressure difference between the LES and the stomach should be less than 2 mmHg, and the duration of the complete relaxation longer than 1 s.
2-Methyl-6-(phenylethynyl)-pyridine (MPEP) was prepared according to the procedure described by K. Sonogashira et al. in Tetrahedron Lett. (1975), 50, 4467-4470. After purification by column chromatography (SiO2), the hydrochloride salt (the hydrochloride salt of 2-methyl-6-(phenylethynyl)-pyridine is also commercially available from e.g. Tocris) was prepared by introducing HCl(g) to an ice-cooled Et2O-solution of the product. The hydrochloride salt of MPEP was tested on adult Labrador retrievers of both genders in accordance with the test model described above.
Inhibition of the number of TLESRs was calculated with regard to the five preceding control experiments for each dog, and the results as set out in Tables 1.1 and 1.2 below were achieved. Table 1.1 - Standard model

Structure (SMILES)	% INHIBITION ± SEM (N) (TLESRs [1]; dose 1.1 µmol/kg/h, N=4 dogs)	% INHIBITION ± SEM (N) (TLESRs [1]; dose 2.2 µmol/kg/h, N=2 dogs)	% INHIBITION ± SEM (N) (TLESRs [2]; inhibition of the number of TLESRs vs five preceding control experiments per dog, dose 1.4 µmol/kg i.v., N=4 dogs)	% INHIBITION ± SEM (N) (TLESRs [2]; inhibition of the number of TLESRs vs five preceding control experiments per dog, dose 4.3 µmol/kg i.v., N=4 dogs)	% INHIBITION ± SEM (N) (TLESRs [2]; inhibition of the number of TLESRs vs five preceding control experiments per dog, dose 8.7 µmol/kg i.v., N=3 dogs)	% INHIBITION ± SEM (N) (TLESRs [2]; inhibition of the number of TLESRs, dose 4 µmol/kg/h, infusion during 60 min, N=4 dogs)	% INHIBITION ± SEM (N) (TLESRs [2]; inhibition of the number of TLESRs, dose 6 µmol/kg/h, infusion during 60 min, N=2 dogs)
COCc1cc(C#N)cc(-c2nc(-c3ccc(F)cn3)no2)c1 [3-[3-(5-fluoropyridin-2-yl)-1,2,4-oxadiazol-5-yl]-5-(methoxymethyl)benzonitrile]	58 ± 11 (4) %	83 ± 17 (2) %	–	–	–	–	–
Cc1cccc(C#Cc2ccccc2)n1 [MPEP, 2-Methyl-6-(phenylethynyl)-pyridine]	–	–	30 ± 5 (4) %	57 ± 8 (4) %	59 ± 11 (3) %	32 ± 13 (4) %	43 ± 3 (2) %
